From US7820623B2 (priority 2006, dated 2010) come the findings set out here.

Some results are limits rather than exact numbers.

The test system of data set [1] is T cell proliferation in human PBMCs. Description: T cell proliferation (3H-thymidine incorporation) in anti-CD3/anti-CD28 stimulated human PBMCs. The class given is cell-based. Conditions: two normal donors. From the text:
Inhibition of T cell proliferation following anti-CD3 and anti-CD28 antibody stimulation of PBMCs. PBMC's were previously isolated from normal human donor Leukophoresis packs, purified by density gradient centrifugation (Ficoll Hypaque), cryopreserved in CPZ Cryopreservation Medium Complete (INCELL, MCPZF-100 plus 10% DMSO final). PBMC's were thawed (95% viability), washed, and seeded at 2×10^5 cells per well in culture medium (RPMI medium 1640; GIBCO) supplemented with 10% fetal calf serum, 100 U/ml penicillin, […] streptomycin, 2 mM L-glutamine, 100 μM non-essential amino acids, and 20 μM 2-ME) in 96-well flat-bottom tissue culture plates. Cells were pre-incubated with either anti-human CD32 (FcyRII) blocking antibody (per manufacturers instructions EASY SEP Human Biotin Selection Kit #18553, StemCell Technologies Vancouver, BC) or Fc-L10-ShK (100 nM-0.001 nM final) for 45 min. Fc-L10-ShK (100 nM-0.001 nM final) was then added to the cells containing anti-human CD32 blocking antibody while medium was added to the cells containing Fc-L10-ShK. Both sets were incubated for an additional 45 min before stimulating for 48 hr with aCD3/aCD28 (0.2 ng/ml and 100 ng/ml, respectively). Final assay volume was 200 ul. […] Cells were then harvested onto glass fiber filters and radioactivity was measured in a B-scintillation counter.
A general note: Uptake of a labelled nucleoside into DNA is a usual measure of proliferation.

The test system of data set [2] is IL-2R on CD4+ T cells in human whole blood. The class given is cell-based.
Data set [3] relates to IL-2 production from αCD3 and αCD28 antibody stimulated human PBMCs. The class given is cell-based.
For data set [4], the system named is IFNγ production from PMA and αCD3 antibody stimulated human PBMCs. The class given is cell-based.
Data set [5] has as its system IFNγ production from αCD3 and αCD28 antibody stimulated human PBMCs. In kind it is cell-based.
The test system of data set [6] is IL-2 production from PMA and αCD3 antibody stimulated human PBMCs. The class given is cell-based.
Data set [7] concerns the target fixed HEK 293 cells stably transfected with human Kv1.3 (Homo sapiens, UniProt P22001). Description: Whole cell immunoassay (ELISA) on fixed HEK 293 cells overexpressing Kv1.3. The class given is binding. How it is done:
Our peptibody reagent can be a useful and convenient tool for monitoring Kv1.3 channel expression in patients and have utility in diagnostic applications. The procedure shown in FIG. 34A and FIG. 34B follows.
FIG. 34A. A whole cell immunoassay was performed to show binding of intact Fc-L10-ShK[1-35] to Kv1.3 transfected HEK 293 cells (BioFocus plc, Cambridge, UK). Parent HEK 293 cells or HEK Kv1.3 cells were plated at 3×10e4 cells/well in poly-D-Lysine coated ninety-six well plates (#35-4461; Becton-Dickinson, Bedford, Mass.). Cells were fixed with formalin (Sigma HT50-1-1 Formalin solution, diluted 1:1 with PBS/0.5% BSA before use) by removing cell growth medium, adding 0.2 ml/well formalin solution and incubating at room temperature for 25 minutes and then washing one time with 100 μl/well of PBS/0.5% BSA. Wells were blocked by addition of 0.3 ml/well of BSA blocker (50-61-00; KPL 10% BSA Diluent/Blocking Solution, diluted 1:1 with PBS; KPL, Gaithersburg, Md.) followed by incubation at room temperature, with shaking, for 3 hr. Plates were washed 2 times with 1×KP Wash Buffer (50-63-00; KPL). […] Absorbance was read at 450 nm on a Molecular Devices SpectroMax 340 (Sunnyvale, Calif.).
FIG. 34B. […] Absorbances were read at 405 nm after stopping reactions by addition of 0.1 ml/well of 1% SDS.
A general note: ELISA stands for enzyme-linked immunosorbent assay.

Data set [8] concerns the target HEK 293 cells overexpressing human Kv1.3 (Homo sapiens, UniProt P22001). Description: Immunohistochemistry of binding to HEK 293 cells overexpressing human Kv1.3. Conditions: 5 μg/ml peptibody. How it is done: Immunohistochemistry analysis of Fc-L10-ShK[1-35] binding to HEK 293 cells overexpressing human Kv1.3. HEK 293 cells overexpressing human Kv1.3 (HEK Kv1.3) were obtained from BioFocus plc (Cambridge, UK) and maintained per manufacturer's recommendation. The parental HEK 293 cell line was used as a control. Cells were plated on Poly-D-Lysine 24 well plates (#35-4414; Becton-Dickinson, Bedford, Mass.) and allowed to grow to approximately 70% confluence. HEK KV1.3 were plated at 0.5×10e5 cells/well in 1 ml/well of medium. HEK 293 cells were plated at a density of 1.5×10e5 cells/well in 1 ml/well of medium. Before staining, cells were fixed with formalin (Sigma HT50-1-1 Formalin solution, diluted 1:1 with PBS/0.5% BSA before use) by removing cell growth medium, adding 0.2 ml/well formalin solution and incubating at room temperature for ten minutes. Cells were stained by incubating with 0.2 ml/well of 5 μg/ml Fc-L10-ShK[1-35] in PBS/BSA for 30′ at room temperature. Fc-L10-ShK[1-35] was aspirated and then the cells were washed one time with PBS/0.5% BSA. Detection antibody (Goat F(ab)2 anti-human IgG-phycoerythrin; Southern Biotech Associates, Birmingham, Ala.) was added to the wells at 5 μg/ml in PBS/0.5% BSA and incubated for 30′ at room temperature. Wash cells once with PBS/0.5% BSA and examine using confocal microscopy (LSM 510 Meta Confocal Microscope; Carl Zeiss AG, Germany). […]

Data set [9] has as its system CD40L on CD4+ T cells in human whole blood. The class given is cell-based.
For the next data set, the target named is human Kv1.3 (Homo sapiens, UniProt P22001). Kind of data set: cell-based.
In the next data set the target is T1, human Kv1.1 (Homo sapiens, UniProt Q09470).
T1 construct: expressed in transfected cells; host or cells: HEK293
The class given is cell-based.

In data set [10] the test system is thapsigargin-induced IL-2 production in human whole blood.
In data set [11] the test system is adoptive transfer EAE model of multiple sclerosis. Conditions: rat, in vivo, sc.
For data set [12] the following is noted: rat, in vivo, iv.
The test system of data set [13] is thapsigargin-induced IFN-g production in human whole blood. The class given is cell-based.

human Kv1.3, sequence (P22001 whole entry): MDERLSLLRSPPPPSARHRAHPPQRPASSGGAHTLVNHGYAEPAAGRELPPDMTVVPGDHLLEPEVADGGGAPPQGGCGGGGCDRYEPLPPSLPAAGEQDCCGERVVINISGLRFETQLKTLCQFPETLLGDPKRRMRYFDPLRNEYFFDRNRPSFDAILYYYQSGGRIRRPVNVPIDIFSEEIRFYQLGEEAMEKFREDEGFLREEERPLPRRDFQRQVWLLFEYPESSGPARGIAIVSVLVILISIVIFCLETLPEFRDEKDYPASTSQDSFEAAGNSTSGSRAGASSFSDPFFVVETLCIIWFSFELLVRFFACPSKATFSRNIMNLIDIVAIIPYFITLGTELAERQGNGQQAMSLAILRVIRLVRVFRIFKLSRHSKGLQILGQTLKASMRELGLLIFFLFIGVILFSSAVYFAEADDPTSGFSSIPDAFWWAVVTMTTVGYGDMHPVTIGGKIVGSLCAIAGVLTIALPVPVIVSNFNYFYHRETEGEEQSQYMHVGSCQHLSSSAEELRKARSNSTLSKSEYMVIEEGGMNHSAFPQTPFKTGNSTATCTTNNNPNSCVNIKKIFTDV
fixed HEK 293 cells stably transfected with human Kv1.3, sequence (P22001 whole entry): as above
HEK 293 cells overexpressing human Kv1.3, sequence (P22001 whole entry): as above
T1 sequence (Q09470 whole entry): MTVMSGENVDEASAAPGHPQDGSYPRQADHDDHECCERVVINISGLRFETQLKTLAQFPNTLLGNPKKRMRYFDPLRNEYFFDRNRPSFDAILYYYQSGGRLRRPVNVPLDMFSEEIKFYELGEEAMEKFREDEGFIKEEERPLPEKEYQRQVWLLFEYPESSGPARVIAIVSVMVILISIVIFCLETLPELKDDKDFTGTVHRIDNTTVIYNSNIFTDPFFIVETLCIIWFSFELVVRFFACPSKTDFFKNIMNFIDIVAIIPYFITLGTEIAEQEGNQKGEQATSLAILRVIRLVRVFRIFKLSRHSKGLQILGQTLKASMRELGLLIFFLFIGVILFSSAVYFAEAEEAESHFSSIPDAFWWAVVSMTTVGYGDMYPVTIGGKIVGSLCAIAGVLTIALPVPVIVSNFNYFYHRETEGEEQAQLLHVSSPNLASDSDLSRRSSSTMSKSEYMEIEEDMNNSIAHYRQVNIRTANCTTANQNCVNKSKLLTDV

As to “Fc-L10-ShK[1-35]: Fc region of human IgG1 fused in-frame to L10 linker and a monomer of Kv1.3 inhibitor peptide ShK[1-35]”, the “inhibition of T cell proliferation” value in data set [1] was “potently inhibits proliferation of T cells in a dose-dependent manner”. Moreover, the “thapsigargin-induced upregulation of the IL-2R on T cells” value in data set [2] is listed as “suppressed”. For the same compound, the “inhibition of IL-2 production” value in [3] is “nearly complete inhibition”; in [6], “complete inhibition”. In addition, in [4], the “inhibition of IFNγ production” value is recorded as “complete inhibition”. For the same compound, the “inhibition of IFNg production” value in data set [5] is on record as “nearly complete inhibition”. Moreover, the “enzyme-immunoassay response on fixed Kv1.3 transfected cells” value in [7] is reported as “dose-dependent increase in response”. In addition, the “staining of cells” value in data set [8] was “stains HEK 293 cells stably transfected with human Kv1.3”. Also, the “thapsigargin-induced upregulation of CD40L on T cells” value in data set [9] was “suppressed”.
Take “Fc-L10-OSK1[K7S]: Fc-L10-OSK1 with lysine to serine at position 7”: in the data set with human Kv1.3, the “change in Kv1.3 potency compared to Fc-L10-OSK1” value amounted to 2 fold, the “fold less potent than the synthetic OSK1 toxin peptide (Kv1.3 IC50)” value is “approximately 10 fold” and the hKv1.1/hKv1.3 selectivity ratio came out at 269. The half-maximal inhibitory concentration (IC50) in the data set with human Kv1.3 (read-out: IC50 for block of the outward potassium current) stood at 0.372 ± 0.071 nM. Further, the “change in selectivity compared to Fc-L10-OSK1” value with human Kv1.1 is reported as 1.3 fold.
Consider `CC[C@H](C)[C@@H]1NC(=O)[C@@H](NC(=O)[C@H](CO)NC(=O)[C@@H](N)CCCNC(=N)N)CSSC[C@@H](C(=O)O)NC(=O)[C@H]([C@@H](C)O)NC(=O)CNC(=O)[C@@H]2CSSC[C@@H]3NC(=O)[C@H](CCC(N)=O)NC(=O)[C@H](Cc4ccccc4)NC(=O)[C@H](C)NC(=O)[C@H]([C@@H](C)O)NC(=O)[C@H](CSSC[C@H](NC(=O)[C@H](Cc4ccccc4)NC(=O)[C@H](CO)NC(=O)[C@H](CC(C)C)NC(=O)[C@H](CCCNC(=N)N)NC(=O)[C@H](Cc4ccc(O)cc4)NC(=O)[C@H](CCCCN)NC(=O)[C@H](CCSC)NC(=O)[C@H](CO)NC(=O)[C@H](Cc4cnc[nH]4)NC(=O)[C@H](CCCCN)NC3=O)C(=O)N[C@@H](CCCNC(=N)N)C(=O)N[C@@H](CCCCN)C(=O)N[C@@H]([C@@H](C)O)C(=O)N2)NC(=O)[C@H](CCCNC(=N)N)NC(=O)[C@H](CO)NC(=O)[C@H](CCCCN)NC(=O)[C@@H]2CCCN2C(=O)[C@H]([C@@H](C)CC)NC(=O)[C@H]([C@@H](C)O)NC(=O)[C@H](CC(=O)O)NC1=O` [ShK, reference compound], for which the “thapsigargin-induced IL-2 production in human whole blood” value in data set [10] is reported as “suppressed”. In addition, the “thapsigargin-induced upregulation of the IL-2R on T cells” value in data set [2] is recorded as “suppressed”. Besides, in [11], the “body weight lost (average)” value is reported as 30 g; the “disease severity and survival” value is “developed severe disease and died”; the onset of disease is 4 days. Moreover, in data set [12], the “duration of significant suppression of Kv1.3 current (<70 POC) by serum” value was at most 1 h. Also, the “inhibition of IL-2 production” value in [3] is recorded as “partial inhibition”. Besides, the “inhibition of IFNγ production” value in data set [4] is listed as “partial inhibition”. In data set [5], the “inhibition of IFNg production” value is “partial inhibition”. Also, the “inhibition of IL-2 production” value in data set [6] is “partial inhibition”. In [13], the “thapsigargin-induced IFN-g production in human whole blood” value is recorded as “suppressed”. Also, the “thapsigargin-induced upregulation of CD40L on T cells” value in [9] is “suppressed”.

Usually IC50 stands for the concentration at which inhibition is half-maximal.
